The values below come from ChEMBL document CHEMBL4387728, “Synthetic glycopeptides reveal specific binding pattern and conformational change at O-mannosylated position of α-dystroglycan by POMGnT1 catalyzed GlcNAc modification” (Bioorg Med Chem, 2019).

The test system of one assay is Maackia amurensis. As to the kind of experiment: Binding affinity to biotin-labeled Maackia amurensis agglutinin in pH 7.4 Tris buffer by fluorescence microarray method.
The next assay concerns Datura stramonium. Kind of assay: Binding affinity to biotin-labeled Datura stramonium agglutinin in pH 7.4 Tris buffer by fluorescence microarray method.
The test system of the next assay is Arachis hypogaea. Kind of assay: Binding affinity to biotin-labeled Arachis hypogaea agglutinin in pH 7.4 Tris buffer by fluorescence microarray method.
Assay [1] relates to Sambucus racemosa subsp. sieboldiana. Kind of assay: Binding affinity to biotin-labeled Sambucus sieboldiana agglutinin in pH 7.4 Tris buffer by fluorescence microarray method.
A further assay has as its system Erythrina crista-galli. Kind of assay: Binding affinity to biotin-labeled Erythrina crista-galli agglutinin in pH 7.4 Tris buffer by fluorescence microarray method.
The next assay deals with Triticum aestivum. As to the kind of experiment: Binding affinity to biotin-labeled Wheat germ agglutinin in pH 7.4 Tris buffer by fluorescence microarray method.
For the next assay, the system named is Canavalia ensiformis. Kind of assay: Binding affinity to biotin-labeled Canavalia ensiformis agglutinin in pH 7.4 Tris buffer by fluorescence microarray method.
Assay [2] deals with Laminin subunit alpha-1 (Homo sapiens) (UniProt P25391). As to the kind of experiment: Binding affinity to biotin-labeled human recombinant laminin-1 at 10 ug/ml in pH 7.4 Tris buffer by fluorescence microarray method.
Laminin subunit alpha-1 (Homo sapiens), sequence (P25391 whole entry): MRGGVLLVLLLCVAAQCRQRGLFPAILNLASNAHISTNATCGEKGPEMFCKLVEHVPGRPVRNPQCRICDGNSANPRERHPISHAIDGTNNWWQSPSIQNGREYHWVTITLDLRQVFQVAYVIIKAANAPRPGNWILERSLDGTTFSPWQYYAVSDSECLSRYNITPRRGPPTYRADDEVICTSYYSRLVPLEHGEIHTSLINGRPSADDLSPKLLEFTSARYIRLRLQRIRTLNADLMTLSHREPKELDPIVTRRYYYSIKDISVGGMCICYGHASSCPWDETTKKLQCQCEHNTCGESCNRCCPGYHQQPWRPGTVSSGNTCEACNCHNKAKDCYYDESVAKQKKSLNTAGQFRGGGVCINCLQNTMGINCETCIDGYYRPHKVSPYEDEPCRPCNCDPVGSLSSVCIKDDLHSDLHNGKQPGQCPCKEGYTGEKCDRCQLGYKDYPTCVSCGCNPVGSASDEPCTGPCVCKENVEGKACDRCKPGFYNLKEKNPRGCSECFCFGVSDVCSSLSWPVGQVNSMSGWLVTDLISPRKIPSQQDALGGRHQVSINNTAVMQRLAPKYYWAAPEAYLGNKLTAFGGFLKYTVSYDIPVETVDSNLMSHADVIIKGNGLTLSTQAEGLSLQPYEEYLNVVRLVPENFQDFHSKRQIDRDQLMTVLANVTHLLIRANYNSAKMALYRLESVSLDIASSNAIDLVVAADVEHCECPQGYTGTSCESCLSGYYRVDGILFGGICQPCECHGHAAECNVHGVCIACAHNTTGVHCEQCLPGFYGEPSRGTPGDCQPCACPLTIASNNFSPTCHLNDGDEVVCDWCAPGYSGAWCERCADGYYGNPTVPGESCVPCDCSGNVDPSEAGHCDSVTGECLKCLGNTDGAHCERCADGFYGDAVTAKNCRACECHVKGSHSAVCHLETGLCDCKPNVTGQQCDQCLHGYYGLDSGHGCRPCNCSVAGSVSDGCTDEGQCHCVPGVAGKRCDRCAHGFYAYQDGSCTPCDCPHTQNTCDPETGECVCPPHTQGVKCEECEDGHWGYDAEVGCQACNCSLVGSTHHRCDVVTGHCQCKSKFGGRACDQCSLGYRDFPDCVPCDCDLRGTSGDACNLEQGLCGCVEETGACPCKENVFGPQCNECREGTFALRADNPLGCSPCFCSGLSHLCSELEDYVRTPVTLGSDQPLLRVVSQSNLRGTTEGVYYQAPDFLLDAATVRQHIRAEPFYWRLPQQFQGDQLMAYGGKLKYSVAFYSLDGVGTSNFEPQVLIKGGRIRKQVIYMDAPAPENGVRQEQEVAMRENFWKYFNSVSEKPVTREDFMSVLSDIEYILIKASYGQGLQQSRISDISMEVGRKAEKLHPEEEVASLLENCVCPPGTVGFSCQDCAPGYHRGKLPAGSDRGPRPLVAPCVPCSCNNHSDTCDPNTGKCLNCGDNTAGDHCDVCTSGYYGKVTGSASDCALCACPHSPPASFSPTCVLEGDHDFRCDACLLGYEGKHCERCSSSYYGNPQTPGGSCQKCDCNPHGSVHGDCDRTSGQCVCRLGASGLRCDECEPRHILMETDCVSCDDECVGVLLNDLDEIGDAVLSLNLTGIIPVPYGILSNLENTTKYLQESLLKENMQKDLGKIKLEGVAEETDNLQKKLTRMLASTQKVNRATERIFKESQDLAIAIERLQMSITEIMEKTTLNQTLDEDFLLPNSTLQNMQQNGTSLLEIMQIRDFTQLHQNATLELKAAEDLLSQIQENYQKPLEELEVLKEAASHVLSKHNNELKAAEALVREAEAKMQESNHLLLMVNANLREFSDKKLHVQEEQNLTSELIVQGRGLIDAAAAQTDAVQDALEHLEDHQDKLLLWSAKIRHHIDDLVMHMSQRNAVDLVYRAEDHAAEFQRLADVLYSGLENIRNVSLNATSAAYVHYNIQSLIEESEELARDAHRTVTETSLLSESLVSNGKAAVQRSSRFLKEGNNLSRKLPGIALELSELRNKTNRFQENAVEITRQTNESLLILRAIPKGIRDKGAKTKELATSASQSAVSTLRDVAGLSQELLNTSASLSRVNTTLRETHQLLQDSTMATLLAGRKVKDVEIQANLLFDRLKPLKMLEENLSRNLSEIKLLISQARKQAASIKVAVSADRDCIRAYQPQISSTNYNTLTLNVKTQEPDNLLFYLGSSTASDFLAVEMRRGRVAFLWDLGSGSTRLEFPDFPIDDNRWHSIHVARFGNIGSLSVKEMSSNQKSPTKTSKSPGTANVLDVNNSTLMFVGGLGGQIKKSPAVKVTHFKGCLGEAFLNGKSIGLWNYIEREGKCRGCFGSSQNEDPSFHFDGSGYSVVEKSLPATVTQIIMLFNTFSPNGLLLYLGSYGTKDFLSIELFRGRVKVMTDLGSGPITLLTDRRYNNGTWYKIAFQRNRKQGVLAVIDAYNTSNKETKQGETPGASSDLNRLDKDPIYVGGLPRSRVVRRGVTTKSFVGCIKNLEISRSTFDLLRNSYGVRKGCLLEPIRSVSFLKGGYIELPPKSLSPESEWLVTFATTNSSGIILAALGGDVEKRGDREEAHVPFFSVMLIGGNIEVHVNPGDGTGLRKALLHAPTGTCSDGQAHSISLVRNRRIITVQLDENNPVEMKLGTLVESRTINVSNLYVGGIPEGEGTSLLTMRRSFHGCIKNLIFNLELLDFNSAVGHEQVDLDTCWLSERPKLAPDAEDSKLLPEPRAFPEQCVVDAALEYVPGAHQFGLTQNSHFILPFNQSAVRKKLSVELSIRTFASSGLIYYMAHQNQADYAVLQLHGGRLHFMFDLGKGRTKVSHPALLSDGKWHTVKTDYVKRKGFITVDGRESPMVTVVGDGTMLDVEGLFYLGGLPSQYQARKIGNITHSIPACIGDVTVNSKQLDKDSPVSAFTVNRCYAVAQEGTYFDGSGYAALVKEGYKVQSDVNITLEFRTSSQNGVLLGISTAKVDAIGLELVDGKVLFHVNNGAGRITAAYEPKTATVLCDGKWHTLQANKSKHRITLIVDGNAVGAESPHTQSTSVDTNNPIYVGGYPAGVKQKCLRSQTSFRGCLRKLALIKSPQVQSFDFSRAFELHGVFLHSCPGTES
The species named for assay [3] is Homo sapiens. Kind of assay: Binding affinity to biotin-labeled human recombinant laminin-2 at 10 ug/ml in pH 7.4 Tris buffer by fluorescence microarray method.
In assay [4] the target is Lactotransferrin (Homo sapiens) (UniProt P02788). As to the kind of experiment: Binding affinity to biotin-labeled lactoferrin (unknown origin) at 10 ug/ml in pH 7.4 Tris buffer by fluorescence microarray method.
Lactotransferrin (Homo sapiens), sequence (P02788 whole entry): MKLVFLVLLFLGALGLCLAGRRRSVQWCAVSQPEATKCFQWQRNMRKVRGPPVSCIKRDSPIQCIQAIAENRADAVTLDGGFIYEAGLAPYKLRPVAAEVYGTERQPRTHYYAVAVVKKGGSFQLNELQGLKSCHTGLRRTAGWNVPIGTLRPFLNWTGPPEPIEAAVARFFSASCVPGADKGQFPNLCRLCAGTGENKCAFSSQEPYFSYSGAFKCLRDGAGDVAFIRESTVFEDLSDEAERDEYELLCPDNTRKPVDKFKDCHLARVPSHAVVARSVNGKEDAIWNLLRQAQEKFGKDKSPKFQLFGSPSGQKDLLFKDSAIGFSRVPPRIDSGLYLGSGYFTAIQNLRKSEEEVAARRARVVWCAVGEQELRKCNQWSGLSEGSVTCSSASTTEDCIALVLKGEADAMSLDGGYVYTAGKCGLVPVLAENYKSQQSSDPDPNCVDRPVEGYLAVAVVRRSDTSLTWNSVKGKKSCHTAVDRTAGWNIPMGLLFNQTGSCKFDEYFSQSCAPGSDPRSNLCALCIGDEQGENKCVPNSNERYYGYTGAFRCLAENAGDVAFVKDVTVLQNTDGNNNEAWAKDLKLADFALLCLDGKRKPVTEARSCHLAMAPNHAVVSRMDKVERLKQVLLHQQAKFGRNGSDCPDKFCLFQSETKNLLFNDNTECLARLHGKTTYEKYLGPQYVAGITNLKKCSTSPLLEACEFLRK
Assay [5] concerns the target Laminin subunit alpha-1 (Homo sapiens) (UniProt P25391). As to the kind of experiment: Binding affinity to biotin-labeled human recombinant laminin-1 at 10 ug/ml in pH 5.6 MES buffer by fluorescence microarray method.
For assay [6], the target named is Lactotransferrin (Homo sapiens) (UniProt P02788). As to the kind of experiment: Binding affinity to biotin-labeled lactoferrin (unknown origin) at 10 ug/ml in pH 5.6 MES buffer by fluorescence microarray method.
For assay [7], the species on record is Homo sapiens. Kind of assay: Binding affinity to biotin-labeled human recombinant laminin-2 at 10 ug/ml in 5.6 MES buffer by fluorescence microarray method.
The nature of assay [8]: Binding affinity to biotin-labeled Agaricus bisporus agglutinin in pH 7.4 Tris buffer by fluorescence microarray method.

Active and inactive are the calls of the source. The calls are words filed in the database; no cut-off is given here. Peptide text beside a SMILES is read from it. * marks the point of attachment. X1 = CC(=O)N[C@H]1[C@H](O[C@H]2[C@@H](O)[C@H](O)[C@@H](CO)O[C@@H]2*)O[C@H](CO)[C@@H](O[C@@H]2O[C@H](CO)[C@H](O)[C@H](O[C@]3(C(=O)O)C[C@H](O)[C@@H](NC(C)=O)[C@H]([C@H](O)[C@H](O)CO)O3)[C@H]2O)[C@@H]1O; X2 = CC(=O)N[C@H]1[C@H](O[C@H]2[C@@H](O)[C@H](O)[C@@H](CO)O[C@@H]2*)O[C@H](CO)[C@@H](O[C@@H]2O[C@H](CO)[C@H](O)[C@H](O)[C@H]2O)[C@@H]1O; Hexanoyl(5-oxo) = CC(=O)CCCC(=O)*

`CC[C@H](C)[C@H](NC(=O)[C@H](C)NC(=O)CNC(=O)[C@H](CCCNC(=N)N)NC(=O)[C@@H](NC(=O)CCCC(C)=O)[C@@H](C)O)C(=O)N[C@H](C(=O)N[C@@H](CCC(N)=O)C(=O)N[C@H](C(=O)N1CCC[C@H]1C(=O)N[C@H](C(=O)N[C@@H](CC(C)C)C(=O)NCC(=O)N1CCC[C@H]1C(=O)N[C@H](C(=O)N[C@@H](CCC(N)=O)C(=O)N1CCC[C@H]1C(=O)N[C@H](C(=O)N[C@@H](CCCNC(=N)N)C(=O)N[C@H](C(N)=O)C(C)C)[C@@H](C)O)[C@@H](C)CC)[C@@H](C)O[C@H]1O[C@H](CO)[C@@H](O)[C@H](O)[C@@H]1O[C@@H]1O[C@H](CO)[C@@H](O[C@@H]2O[C@H](CO)[C@H](O)[C@H](O[C@]3(C(=O)O)C[C@H](O)[C@@H](NC(C)=O)[C@H]([C@H](O)[C@H](O)CO)O3)[C@H]2O)[C@H](O)[C@H]1NC(C)=O)[C@@H](C)O[C@H]1O[C@H](CO)[C@@H](O)[C@H](O)[C@@H]1O[C@@H]1O[C@H](CO)[C@@H](O[C@@H]2O[C@H](CO)[C@H](O)[C@H](O[C@]3(C(=O)O)C[C@H](O)[C@@H](NC(C)=O)[C@H]([C@H](O)[C@H](O)CO)O3)[C@H]2O)[C@H](O)[C@H]1NC(C)=O)[C@@H](C)CC` ({Hexanoyl(5-oxo)}-TRGAIIQT(X1)PT(X1)LGPIQPTRV-NH2): the outcome (in the assay on Maackia amurensis; with Datura stramonium; in the assay filed under Homo sapiens [3]; in assay [4]) was inactive. Besides, the outcome (in the assay with Arachis hypogaea; in assay [1]; in the assay on Erythrina crista-galli; in the assay with Triticum aestivum; in the assay with Canavalia ensiformis; in assay [2]) was Active. The result (in assay [5]; in assay [6]; in the assay filed under Homo sapiens [7]; in assay [8]) was Active.

For the compound `CC[C@H](C)[C@H](NC(=O)[C@H](C)NC(=O)CNC(=O)[C@H](CCCNC(=N)N)NC(=O)[C@@H](NC(=O)CCCC(C)=O)[C@@H](C)O)C(=O)N[C@H](C(=O)N[C@@H](CCC(N)=O)C(=O)N[C@H](C(=O)N1CCC[C@H]1C(=O)N[C@H](C(=O)N[C@@H](CC(C)C)C(=O)NCC(=O)N1CCC[C@H]1C(=O)N[C@H](C(=O)N[C@@H](CCC(N)=O)C(=O)N1CCC[C@H]1C(=O)N[C@H](C(=O)N[C@@H](CCCNC(=N)N)C(=O)N[C@H](C(N)=O)C(C)C)[C@@H](C)O[C@H]1O[C@H](CO)[C@@H](O)[C@H](O)[C@@H]1O[C@@H]1O[C@H](CO)[C@@H](O[C@@H]2O[C@H](CO)[C@H](O)[C@H](O[C@]3(C(=O)O)C[C@H](O)[C@@H](NC(C)=O)[C@H]([C@H](O)[C@H](O)CO)O3)[C@H]2O)[C@H](O)[C@H]1NC(C)=O)[C@@H](C)CC)[C@@H](C)O)[C@@H](C)O[C@H]1O[C@H](CO)[C@@H](O)[C@H](O)[C@@H]1O[C@@H]1O[C@H](CO)[C@@H](O[C@@H]2O[C@H](CO)[C@H](O)[C@H](O[C@]3(C(=O)O)C[C@H](O)[C@@H](NC(C)=O)[C@H]([C@H](O)[C@H](O)CO)O3)[C@H]2O)[C@H](O)[C@H]1NC(C)=O)[C@@H](C)CC` ({Hexanoyl(5-oxo)}-TRGAIIQT(X1)PTLGPIQPT(X1)RV-NH2), the outcome (in the assay on Maackia amurensis; in the assay with Datura stramonium; in the assay filed under Homo sapiens [3]; in assay [4]) was inactive. Moreover, the result (with Arachis hypogaea; in assay [1]; in the assay with Erythrina crista-galli; with Triticum aestivum; in the assay on Canavalia ensiformis; in assay [2]) was Active. The outcome (in assay [5]; in assay [6]; in the assay filed under Homo sapiens [7]; in [8]) was Active.

For `CC[C@H](C)[C@H](NC(=O)[C@H](C)NC(=O)CNC(=O)[C@H](CCCNC(=N)N)NC(=O)[C@@H](NC(=O)CCCC(C)=O)[C@@H](C)O)C(=O)N[C@H](C(=O)N[C@@H](CCC(N)=O)C(=O)N[C@H](C(=O)N1CCC[C@H]1C(=O)N[C@H](C(=O)N[C@@H](CC(C)C)C(=O)NCC(=O)N1CCC[C@H]1C(=O)N[C@H](C(=O)N[C@@H](CCC(N)=O)C(=O)N1CCC[C@H]1C(=O)N[C@H](C(=O)N[C@@H](CCCNC(=N)N)C(=O)N[C@H](C(N)=O)C(C)C)[C@@H](C)O)[C@@H](C)CC)[C@@H](C)O)[C@@H](C)O[C@H]1O[C@H](CO)[C@@H](O)[C@H](O)[C@@H]1O[C@@H]1O[C@H](CO)[C@@H](O[C@@H]2O[C@H](CO)[C@H](O)[C@H](O[C@]3(C(=O)O)C[C@H](O)[C@@H](NC(C)=O)[C@H]([C@H](O)[C@H](O)CO)O3)[C@H]2O)[C@H](O)[C@H]1NC(C)=O)[C@@H](C)CC` ({Hexanoyl(5-oxo)}-TRGAIIQT(X1)PTLGPIQPTRV-NH2), the outcome (in the assay on Maackia amurensis; in the assay with Datura stramonium; in the assay filed under Homo sapiens [3]; in assay [4]) was inactive. The result (in the assay on Arachis hypogaea; in assay [1]; with Erythrina crista-galli; with Triticum aestivum; with Canavalia ensiformis; in [2]) was Active. The result (in assay [5]; in assay [6]; in the assay listed under Homo sapiens [7]; in [8]) was Active.

For the compound `CC[C@H](C)[C@H](NC(=O)[C@H](C)NC(=O)CNC(=O)[C@H](CCCNC(=N)N)NC(=O)[C@@H](NC(=O)CCCC(C)=O)[C@@H](C)O)C(=O)N[C@H](C(=O)N[C@@H](CCC(N)=O)C(=O)N[C@H](C(=O)N1CCC[C@H]1C(=O)N[C@H](C(=O)N[C@@H](CC(C)C)C(=O)NCC(=O)N1CCC[C@H]1C(=O)N[C@H](C(=O)N[C@@H](CCC(N)=O)C(=O)N1CCC[C@H]1C(=O)N[C@H](C(=O)N[C@@H](CCCNC(=N)N)C(=O)N[C@H](C(N)=O)C(C)C)[C@@H](C)O[C@H]1O[C@H](CO)[C@@H](O)[C@H](O)[C@@H]1O[C@@H]1O[C@H](CO)[C@@H](O[C@@H]2O[C@H](CO)[C@H](O)[C@H](O)[C@H]2O)[C@H](O)[C@H]1NC(C)=O)[C@@H](C)CC)[C@@H](C)O[C@H]1O[C@H](CO)[C@@H](O)[C@H](O)[C@@H]1O[C@@H]1O[C@H](CO)[C@@H](O[C@@H]2O[C@H](CO)[C@H](O)[C@H](O)[C@H]2O)[C@H](O)[C@H]1NC(C)=O)[C@@H](C)O[C@H]1O[C@H](CO)[C@@H](O)[C@H](O)[C@@H]1O[C@@H]1O[C@H](CO)[C@@H](O[C@@H]2O[C@H](CO)[C@H](O)[C@H](O)[C@H]2O)[C@H](O)[C@H]1NC(C)=O)[C@@H](C)CC` ({Hexanoyl(5-oxo)}-TRGAIIQT(X2)PT(X2)LGPIQPT(X2)RV-NH2), the result (with Maackia amurensis; with Datura stramonium; in the assay filed under Homo sapiens [3]; in [4]) was inactive. The result (with Arachis hypogaea; in assay [1]; in the assay with Erythrina crista-galli; in the assay with Triticum aestivum; with Canavalia ensiformis; in [2]) was Active. In addition, the result (in assay [5]; in [6]; in the assay listed under Homo sapiens [7]; in assay [8]) was Active.

For `CC[C@H](C)[C@H](NC(=O)[C@H](C)NC(=O)CNC(=O)[C@H](CCCNC(=N)N)NC(=O)[C@@H](NC(=O)CCCC(C)=O)[C@@H](C)O)C(=O)N[C@H](C(=O)N[C@@H](CCC(N)=O)C(=O)N[C@H](C(=O)N1CCC[C@H]1C(=O)N[C@H](C(=O)N[C@@H](CC(C)C)C(=O)NCC(=O)N1CCC[C@H]1C(=O)N[C@H](C(=O)N[C@@H](CCC(N)=O)C(=O)N1CCC[C@H]1C(=O)N[C@H](C(=O)N[C@@H](CCCNC(=N)N)C(=O)N[C@H](C(N)=O)C(C)C)[C@@H](C)O)[C@@H](C)CC)[C@@H](C)O[C@H]1O[C@H](CO)[C@@H](O)[C@H](O)[C@@H]1O[C@@H]1O[C@H](CO)[C@@H](O[C@@H]2O[C@H](CO)[C@H](O)[C@H](O)[C@H]2O)[C@H](O)[C@H]1NC(C)=O)[C@@H](C)O[C@H]1O[C@H](CO)[C@@H](O)[C@H](O)[C@@H]1O[C@@H]1O[C@H](CO)[C@@H](O[C@@H]2O[C@H](CO)[C@H](O)[C@H](O)[C@H]2O)[C@H](O)[C@H]1NC(C)=O)[C@@H](C)CC` ({Hexanoyl(5-oxo)}-TRGAIIQT(X2)PT(X2)LGPIQPTRV-NH2), the outcome (in the assay on Maackia amurensis; with Datura stramonium; in the assay listed under Homo sapiens [3]; in [4]) was inactive. In addition, the outcome (in the assay on Arachis hypogaea; in assay [1]; in the assay on Erythrina crista-galli; in the assay on Triticum aestivum; in the assay on Canavalia ensiformis; in [2]) was Active. In addition, the result (in assay [5]; in assay [6]; in the assay listed under Homo sapiens [7]; in assay [8]) was Active.
